The supplement of paper PMC11061612

Key:
Assay in all cases: combination Emax (second highest fraction inhibited in the dose matrix, 72 h); higher = more inhibition; extreme values may be limits of the assay
[1] = test system: 22RV1 (Prostate Carcinoma)
Method in brief: (§1)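 Cell lines in DMEM/F12 or RPMI with 10% FBS were plated in 1536-well plates, held 24 hours at 37°C, 5% CO2, then given two-drug dose matrices for 72 hours (DMSO typically 0.2%). Viability was read by CellTiter-Glo 2.0 luminescence and scaled as inhibition from 0 (vehicle wells) to 1 (blank wells). Combination Emax is the second-highest inhibition in the matrix; Bliss excess is observed combination effect minus expected EA + EB − EA·EB, EA and EB being single-agent effects.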

5637 (Bladder Carcinoma) = test system: 5637 (Bladder Carcinoma)
Method in brief: as §1

A101D (Melanoma) = test system: A101D (Melanoma)
Method in brief: as §1

A204 (Rhabdomyosarcoma) = test system: A204 (Rhabdomyosarcoma)
Method in brief: as §1

[2] = test system: A2780 (Ovarian Carcinoma)
Method in brief: as §1

AU565 (Breast Carcinoma) = test system: AU565 (Breast Carcinoma)
Method in brief: as §1

[3] = test system: CGTH-W-1 (Thyroid Gland Carcinoma)
Method in brief: as §1

COLO-792 (Melanoma) = test system: COLO-792 (Melanoma)
Method in brief: as §1

[4] = test system: EPLC-272H (Other Solid Carcinomas)
Method in brief: as §1

[5] = test system: ESO26 (Esophageal Adenocarcinoma)
Method in brief: as §1

EW-16 (Ewing's Sarcoma) = test system: EW-16 (Ewing's Sarcoma)
Method in brief: as §1

[6] = test system: GA-10 (Burkitt's Lymphoma)
Method in brief: as §1

[7] = test system: JIMT-1 (Breast Carcinoma)
Method in brief: as §1

[8] = test system: Jurkat (T-Lymphoblastic Leukemia)
Method in brief: as §1

[9] = test system: KYSE-220 (Esophageal Squamous Cell Carcinoma)
Method in brief: as §1

[10] = test system: NCI-H1651 (Lung Adenocarcinoma)
Method in brief: as §1

[11] = test system: NCI-H1703 (Squamous Cell Lung Carcinoma)
Method in brief: as §1

[12] = test system: NCI-H2228 (Lung Adenocarcinoma)
Method in brief: as §1

[13] = test system: OACp4C (Esophageal Adenocarcinoma)
Method in brief: as §1

[14] = test system: huH-1 (Hepatocellular Carcinoma)
Method in brief: as §1

Compound | combination Emax [1] | combination Emax (5637 (Bladder Carcinoma)) | combination Emax (A101D (Melanoma)) | combination Emax (A204 (Rhabdomyosarcoma)) | combination Emax [2] | combination Emax (AU565 (Breast Carcinoma)) | combination Emax [3] | combination Emax (COLO-792 (Melanoma)) | combination Emax [4] | combination Emax [5] | combination Emax (EW-16 (Ewing's Sarcoma)) | combination Emax [6] | combination Emax [7] | combination Emax [8] | combination Emax [9] | combination Emax [10] | combination Emax [11] | combination Emax [12] | combination Emax [13] | combination Emax [14]
CC(=O)Nc1cccc(-n2c(=O)n(C3CC3)c(=O)c3c(Nc4ccc(I)cc4F)n(C)c(=O)c(C)c32)c1 [Trametinib] + Cc1nc(-c2cn3c(n2)-c2ccc(-c4cnn(C(C)(C)C(N)=O)c4)cc2OCC3)n(C(C)C)n1 [Taselisib] (first compound max 1 µM, 7x7, partner max 10 µM) | 0.704 | 0.989 | 0.923 | 0.816 | 0.972 | 0.604 | 0.99 | 1 | 1 | 0.746 | 0.604 | 0.682 | 0.631 | 0.692 | 0.958 | 0.285 | 0.759 | 0.914 | 1 | 0.688
COc1nnc2ccc(N3CCC(c4ccc(OCCN5CCN(C)C(=O)[C@H]5C)cc4)CC3)nn12 [AZD5153] + CC1(C)CCC(CN2CCN(c3ccc(C(=O)NS(=O)(=O)c4ccc(NCC5CCOCC5)c([N+](=O)[O-])c4)c(Oc4cnc5[nH]ccc5c4)c3)CC2)=C(c2ccc(Cl)cc2)C1 [Venetoclax] (first compound max 1 µM, 7x7, partner max 1 µM) | 0.486 | 0.477 | 0.67 | 0.416 | 0.736 | 0.311 | 0.212 | 0.583 | 0.754 | 0.648 | 0.464 | 0.693 | 0.311 | 0.679 | 0.617 | 0.257 | 0.655 | 0.288 | 0.545 | 0.401
NC1(C(=O)N[C@@H](CCO)c2ccc(Cl)cc2)CCN(c2ncnc3[nH]ccc23)CC1 [Capivasertib] + C[C@@H]1COCCN1C2=NC(=NC(=C2)C3(CC3)[S@](=N)(=O)C)C4=C5C=CNC5=NC=C4 [AZD6738] (first compound max 10 µM, 7x7, partner max 10 µM) | 0.76 | 0.564 | 0.803 | 0.467 | 0.86 | 0.684 | 0.398 | 0.549 | 0.885 | 0.599 | 0.784 | 1 | 0.612 | 0.961 | 0.869 | 0.581 | 0.928 | 0.575 | 0.979 | 0.692
Cn1cnc2c(F)c(Nc3ccc(Br)cc3Cl)c(C(=O)NOCCO)cc21 [Selumetinib] + C[C@@H]1COCCN1C2=NC(=NC(=C2)C3(CC3)[S@](=N)(=O)C)C4=C5C=CNC5=NC=C4 [AZD6738] (first compound max 10 µM, 7x7, partner max 10 µM) | 0.526 | 0.633 | 0.76 | 0.388 | 0.829 | 0.315 | 0.162 | 0.589 | 0.902 | 0.486 | 0.587 | 0.977 | 0.491 | 0.913 | 0.753 | 0.377 | 0.881 | 0.405 | 0.856 | 0.537
Cc1c2c(nn1C)CSCc1cc(n(C)n1)CSc1cc(c3ccccc3c1)OCCCc1c(C(=O)O)n(C)c3c-2c(Cl)ccc13 [AZD5991] + C[C@@H]1COCCN1C2=NC(=NC(=C2)C3(CC3)[S@](=N)(=O)C)C4=C5C=CNC5=NC=C4 [AZD6738] (first compound max 1 µM, 7x7, partner max 10 µM) | 0.71 | 0.787 | 1 | 0.773 | 0.922 | 1 | 0.389 | 1 | 0.993 | 0.544 | 0.756 | 0.998 | 0.723 | 0.974 | 0.877 | 0.714 | 0.961 | 0.433 | 0.851 | 0.623
COc1cccc(OCCCN)c1-c1cc(Nc2cnc(C#N)cn2)n[nH]1 [Prexasertib] + CN(C)CCCOc1ccc(-c2ccc3ncc4c(c3c2)n(C2CCOCC2)c(=O)n4C)cn1 [AZD0156] (first compound max 1 µM, 7x7, partner max 1 µM) | 0.532 | 0.849 | 0.737 | 0.633 | 0.673 | 0.714 | 0.777 | 0.386 | 0.924 | 0.571 | 0.516 | 1 | 0.869 | 0.992 | 0.925 | 0.677 | 0.966 | 0.664 | 0.672 | 0.756
COc1cccc(OCCCN)c1-c1cc(Nc2cnc(C#N)cn2)n[nH]1 [Prexasertib] + Cc1cc2ncnn2cc1Nc1ncc2c(n1)n(C1CCOCC1)c(=O)n2C [AZD7648] (first compound max 1 µM, 7x7, partner max 10 µM) | 0.575 | 0.845 | 0.762 | 0.528 | 0.737 | 0.745 | 0.725 | 0.317 | 0.918 | 0.504 | 0.558 | 1 | 0.864 | 1 | 0.935 | 0.787 | 0.951 | 0.682 | 0.649 | 0.762
COc1nnc2ccc(N3CCC(c4ccc(OCCN5CCN(C)C(=O)[C@H]5C)cc4)CC3)nn12 [AZD5153] + Cc1c2c(nn1C)CSCc1cc(n(C)n1)CSc1cc(c3ccccc3c1)OCCCc1c(C(=O)O)n(C)c3c-2c(Cl)ccc13 [AZD5991] (first compound max 1 µM, 7x7, partner max 1 µM) | 0.857 | 0.637 | 0.924 | 0.73 | 0.977 | 1 | 0.428 | 1 | 0.959 | 0.778 | 0.486 | 0.967 | 0.611 | 1 | 0.842 | 0.515 | 0.966 | 0.372 | 0.789 | 0.435
COc1nnc2ccc(N3CCC(c4ccc(OCCN5CCN(C)C(=O)[C@H]5C)cc4)CC3)nn12 [AZD5153] + C[C@@H]1COCCN1C2=NC(=NC(=C2)C3(CC3)[S@](=N)(=O)C)C4=C5C=CNC5=NC=C4 [AZD6738] (first compound max 1 µM, 7x7, partner max 10 µM) | 0.645 | 0.823 | 0.805 | 0.573 | 0.848 | 0.502 | 0.448 | 0.72 | 0.919 | 0.84 | 0.747 | 0.962 | 0.77 | 0.985 | 0.863 | 0.767 | 0.973 | 0.594 | 0.856 | 0.69
NC1(C(=O)N[C@@H](CCO)c2ccc(Cl)cc2)CCN(c2ncnc3[nH]ccc23)CC1 [Capivasertib] + CC(=O)c1c(C)c2cnc(Nc3ccc(N4CCNCC4)cn3)nc2n(C2CCCC2)c1=O [Palbociclib] (first compound max 10 µM, 7x7, partner max 10 µM) | 0.639 | 0.387 | 0.581 | 0.517 | 0.77 | 0.505 | 0.349 | 0.465 | 0.891 | 0.498 | 0.44 | 0.97 | 0.246 | 0.849 | 0.712 | 0.0542 | 0.609 | 0.506 | 0.858 | 0.374
CC(=O)c1c(C)c2cnc(Nc3ccc(N4CCNCC4)cn3)nc2n(C2CCCC2)c1=O [Palbociclib] + CC1(C)CCC(CN2CCN(c3ccc(C(=O)NS(=O)(=O)c4ccc(NCC5CCOCC5)c([N+](=O)[O-])c4)c(Oc4cnc5[nH]ccc5c4)c3)CC2)=C(c2ccc(Cl)cc2)C1 [Venetoclax] (first compound max 10 µM, 7x7, partner max 1 µM) | 0.382 | 0.231 | 0.424 | 0.308 | 0.721 | 0.262 | 0.122 | 0.29 | 0.243 | 0.112 | 0.333 | 0.95 | 0.107 | 0.412 | 0.189 | 0.0383 | 0.486 | 0.238 | 0.217 | 0.119
COc1nnc2ccc(N3CCC(c4ccc(OCCN5CCN(C)C(=O)[C@H]5C)cc4)CC3)nn12 [AZD5153] + CCN(CCO)CCCOc1ccc2c(Nc3cc(CC(=O)Nc4cccc(F)c4)[nH]n3)ncnc2c1 [AZD2811] (first compound max 1 µM, 7x7, partner max 1 µM) | 0.522 | 0.68 | 0.693 | 0.466 | 0.783 | 0.359 | 0.308 | 0.563 | 0.748 | 0.752 | 0.553 | 0.74 | 0.382 | 0.745 | 0.677 | 0.499 | 0.721 | 0.348 | 0.683 | 0.527
